We go through eight molecules from PubChem BioAssay AID624129 (Sanford-Burnham Center for Chemical Genomics, 2012).

What all share (assay): potency against CXCR6 with APJ panel – cell-based, beta-arrestin, DiscoveRx, uHTS hits, dose response (AID 624129)
For assay [1], the target named is C-C chemokine receptor type 6 (Homo sapiens) (UniProt P51684). The following applies: CXCR6 beta-arrestin (DiscoveRx) antagonist cell assay.
The target in assay [2] is C-X-C chemokine receptor type 6 (Homo sapiens) (UniProt O00574). To be noted: CXCR6 beta-arrestin (DiscoveRx) antagonist cell assay; for inhibition: CXCR6, run 1, dose range 2, at 80 µM (top of the series).
Assay [3] addresses Beta-galactosidase (Escherichia coli) (UniProt Q8VNN2). To be noted: CXCR6 beta-arrestin (DiscoveRx) antagonist cell assay, b-galactosidase.
The target of assay [4] is Apelin receptor (Homo sapiens) (UniProt P35414). To be noted: CXCR6 beta-arrestin (DiscoveRx) antagonist cell assay, APJ.
The mark [5] stands for this setting: CCR6, dose range 1, mean IC50 across replicates.
Where [6] appears, read: CXCR6, dose range 1, mean IC50 across replicates.
[7] abbreviates: dose range 1, mean IC50 across replicates.

SMILES strings stand for the structures. Calls of active or inactive are those of the source. No rule for the calls is given here. Where only a bound is given, the exact number is not on record here.

Chain of C-X-C chemokine receptor type 6 (Homo sapiens) (O00574 whole entry, looked up): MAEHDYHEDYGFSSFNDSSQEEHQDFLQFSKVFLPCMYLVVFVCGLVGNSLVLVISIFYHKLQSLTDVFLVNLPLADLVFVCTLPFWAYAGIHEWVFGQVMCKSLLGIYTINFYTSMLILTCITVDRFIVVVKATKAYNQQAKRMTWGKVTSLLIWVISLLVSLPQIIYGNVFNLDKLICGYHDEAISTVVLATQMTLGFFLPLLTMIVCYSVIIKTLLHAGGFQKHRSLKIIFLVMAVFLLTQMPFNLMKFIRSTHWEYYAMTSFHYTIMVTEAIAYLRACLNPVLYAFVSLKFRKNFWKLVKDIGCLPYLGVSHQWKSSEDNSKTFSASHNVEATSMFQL
Chain of Beta-galactosidase (Escherichia coli) (Q8VNN2 whole entry, looked up): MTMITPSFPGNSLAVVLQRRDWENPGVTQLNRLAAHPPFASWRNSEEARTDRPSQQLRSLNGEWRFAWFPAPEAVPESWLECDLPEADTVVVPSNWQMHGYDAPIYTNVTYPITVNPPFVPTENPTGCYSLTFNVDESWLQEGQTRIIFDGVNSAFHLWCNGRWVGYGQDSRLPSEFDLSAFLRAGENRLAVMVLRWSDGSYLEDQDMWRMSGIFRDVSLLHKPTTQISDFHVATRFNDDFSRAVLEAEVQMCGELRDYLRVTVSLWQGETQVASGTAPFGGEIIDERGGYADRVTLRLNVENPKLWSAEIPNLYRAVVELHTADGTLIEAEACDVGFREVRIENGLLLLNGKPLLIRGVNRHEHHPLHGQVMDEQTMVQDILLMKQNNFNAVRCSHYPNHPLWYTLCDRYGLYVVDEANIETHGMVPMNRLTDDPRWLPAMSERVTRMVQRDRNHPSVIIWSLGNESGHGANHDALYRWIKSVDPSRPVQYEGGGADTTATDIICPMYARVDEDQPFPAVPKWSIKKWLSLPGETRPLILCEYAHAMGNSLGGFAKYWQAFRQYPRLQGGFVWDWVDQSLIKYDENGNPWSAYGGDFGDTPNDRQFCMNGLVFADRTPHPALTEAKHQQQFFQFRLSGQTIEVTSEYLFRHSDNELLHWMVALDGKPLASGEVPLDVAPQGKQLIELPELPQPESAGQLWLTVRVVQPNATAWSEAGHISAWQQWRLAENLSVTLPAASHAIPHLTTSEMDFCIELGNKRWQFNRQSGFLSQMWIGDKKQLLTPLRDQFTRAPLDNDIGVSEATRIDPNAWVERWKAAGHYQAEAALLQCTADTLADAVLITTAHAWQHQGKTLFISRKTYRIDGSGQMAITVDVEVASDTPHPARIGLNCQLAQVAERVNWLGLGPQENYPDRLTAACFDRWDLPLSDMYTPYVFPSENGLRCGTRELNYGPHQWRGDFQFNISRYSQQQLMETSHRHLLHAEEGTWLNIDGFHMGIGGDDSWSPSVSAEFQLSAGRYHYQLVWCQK

As for `CCOc1cc(Br)c(Br)c(C=Nc2ccc(NC(C)=O)cc2)c1O`, the IC50 in assay [1] (setting [5]) was 40.4 µM; in assay [1] (CCR6, run 2, dose range 1), 40.4 µM; in assay [2] (setting [6]), 19.8 µM; in assay [2] (CXCR6, run 1, dose range 2), 5.38 µM; in assay [2] (CXCR6, run 2, dose range 1), over 80 µM; in assay [2] (CXCR6, run 2, dose range 2), 14.1 µM. Besides, the IC50 in assay [3] (dose range 1) was > 80 µM (inactive); in assay [3] (setting [7]), over 80 µM; in assay [4] (dose range 1) it was 45.8 µM; in assay [4] (setting [7]) it was 45.8 µM; in assay [4] (run 2, dose range 1), over 80 µM; in assay [4] (run 3, dose range 1), over 80 µM. Besides, in assay [2] (CXCR6, dose range 1), the IC50 result was “inactive”.
`CCCC1CCC(=NNC(=S)NCCc2ccccc2)CC1` (stereo not given): the half-maximal inhibitory concentration (IC50) in assay [1] (setting [5]) is over 80 µM; in assay [1] (CCR6, run 2, dose range 1), over 80 µM; in assay [2] (CXCR6, dose range 1) it was > 80 µM (inactive); in assay [2] (setting [6]), over 80 µM; in assay [2] (CXCR6, run 2, dose range 1), over 80 µM; in assay [3] (dose range 1) it was > 80 µM (inactive). Further, the IC50 is over 80 µM in assay [3] (setting [7]); over 80 µM in assay [4] (setting [7]); over 80 µM in assay [4] (run 2, dose range 1); over 80 µM in assay [4] (run 3, dose range 1). For the same molecule, the inhibition in assay [2] was -19%.
With `Cc1cccc(C(=O)Nc2ccc(C(=O)/C=C/c3ccncc3)cc2)c1`, the IC50 in assay [1] (setting [5]) is over 80 µM; in assay [1] (CCR6, run 2, dose range 1), over 80 µM; in assay [2] (CXCR6, dose range 1) it was > 80 µM (inactive); in assay [2] (setting [6]) it was over 80 µM; in assay [2] (CXCR6, run 2, dose range 1), over 80 µM; in assay [3] (dose range 1), > 80 µM (inactive). Also, the IC50 in assay [3] (setting [7]) was over 80 µM; in assay [4] (setting [7]), over 80 µM; in assay [4] (run 2, dose range 1) it was over 80 µM; in assay [4] (run 3, dose range 1), over 80 µM. For the same molecule, in assay [2], the inhibition is -26.4%.
In the case of `CCC(=O)OCOc1ccc(/C=C2/CCC(CN(C)C)C2=O)cc1` (stereo not given), the IC50 is 10.3 µM in assay [1] (CCR6, dose range 1); 11.1 µM in assay [1] (setting [5]); 11.9 µM in assay [1] (CCR6, run 2, dose range 1); 12.6 µM in assay [2] (setting [6]); 10.2 µM in assay [2] (CXCR6, run 2, dose range 1); > 80 µM (inactive) in assay [3] (dose range 1). The IC50 in assay [3] (setting [7]) was over 80 µM; in assay [4] (dose range 1), 17.2 µM; in assay [4] (setting [7]) it was 16.8 µM; in assay [4] (run 2, dose range 1), 15.2 µM; in assay [4] (run 3, dose range 1), 17.9 µM. For the same molecule, the IC50 entry in assay [2] (CXCR6, dose range 1) is “inactive”. Besides, the inhibition in assay [2] was 124%.
Regarding `O=C(Nc1nc(-c2ccccn2)cs1)c1cc(Cl)ccc1[N+](=O)[O-]`, the IC50 was over 80 µM in assay [1] (setting [5]); over 80 µM in assay [1] (CCR6, run 2, dose range 1); > 80 µM (inactive) in assay [2] (CXCR6, dose range 1); over 80 µM in assay [2] (setting [6]); over 80 µM in assay [2] (CXCR6, run 2, dose range 1); > 80 µM (inactive) in assay [3] (dose range 1). In addition, the IC50 was over 80 µM in assay [3] (setting [7]); over 80 µM in assay [4] (setting [7]); over 80 µM in assay [4] (run 2, dose range 1); over 80 µM in assay [4] (run 3, dose range 1). Moreover, the inhibition in assay [2] is -48.8%.
Turning to `CCN(CC)CC(C)(C)C(=O)/C=C/c1ccc(/C=C/C(=O)C(C)(C)CN(CC)CC)cc1`, the IC50 in assay [1] (CCR6, dose range 1) is 2.76 µM; in assay [1] (setting [5]), 2.87 µM; in assay [1] (CCR6, run 2, dose range 1) it was 2.98 µM; in assay [2] (CXCR6, dose range 1) it was 3.11 µM; in assay [2] (setting [6]) it was 3.27 µM; in assay [2] (CXCR6, run 1, dose range 2), 3.64 µM. Besides, the IC50 in assay [2] (CXCR6, run 2, dose range 1) was 2.99 µM; in assay [2] (CXCR6, run 2, dose range 2), 3.35 µM; in assay [3] (dose range 1), > 80 µM (inactive); in assay [3] (setting [7]), over 80 µM; in assay [4] (dose range 1) it was 4.46 µM; in assay [4] (setting [7]) it was 4.05 µM. In addition, the IC50 amounted to 3.91 µM in assay [4] (run 2, dose range 1) and 3.78 µM in assay [4] (run 3, dose range 1).
In the case of `O=[N+]([O-])c1c(NCCCO)cc(Sc2nc3ccccc3s2)c2nonc12`, the half-inhibitory concentration (IC50) was 8.25 µM in assay [1] (CCR6, dose range 1); 8.81 µM in assay [1] (setting [5]); 9.37 µM in assay [1] (CCR6, run 2, dose range 1); 14.3 µM in assay [2] (setting [6]); 13.5 µM in assay [2] (CXCR6, run 2, dose range 1); > 80 µM (inactive) in assay [3] (dose range 1). For the same molecule, the IC50 in assay [3] (setting [7]) is over 80 µM; in assay [4] (dose range 1), 9.5 µM; in assay [4] (setting [7]) it was 11.5 µM; in assay [4] (run 2, dose range 1), 11.7 µM; in assay [4] (run 3, dose range 1), 13.2 µM. In addition, the IC50 result in assay [2] (CXCR6, dose range 1) is “inactive”. Further, in assay [2], the inhibition was determined as 118%.
Take `CCC(C)c1ccc(O)c(NC(=S)NC(=O)c2cccnc2)c1` (stereo not given): the IC50 in assay [1] (CCR6, dose range 1) is 7.67 µM; in assay [1] (setting [5]), 12 µM; in assay [1] (CCR6, run 2, dose range 1), 16.3 µM; in assay [2] (setting [6]), 12.9 µM; in assay [2] (CXCR6, run 1, dose range 2), 8.01 µM; in assay [2] (CXCR6, run 2, dose range 1), 20.2 µM. Further, the IC50 in assay [2] (CXCR6, run 2, dose range 2) is 12.9 µM; in assay [3] (setting [7]), 56 µM; in assay [4] (dose range 1), 8.9 µM; in assay [4] (setting [7]) it was 11.3 µM; in assay [4] (run 2, dose range 1) it was 14.6 µM; in assay [4] (run 3, dose range 1), 10.5 µM. The IC50 result in assay [2] (CXCR6, dose range 1) was “inactive”; in assay [3] (dose range 1) it was “inactive”.
